Experimental data published in article PMC9914926, “Bioactive Compounds of Underground Valerian Extracts and Their Effect on Inhibiting Metabolic Syndrome-Related Enzymes Activities” (Foods, 2023).
Read-outs that look alike come from different tables or passages of the source.

Key:
[1] = target: T1, porcine pancreatic α-amylase (Sus scrofa, UniProt P00690); experiment: α-amylase inhibition assay; type: biochemical; conditions: for inhibition ability on α-amylase: dosage 0–2.5 mg/mL; for inhibition of α-amylase activity: 0.5–2 mg/mL
T1 construct: purchased Sigma-Aldrich (St. Louis, MO, USA); host or cells: porcine pancreas
T1 sequence (P00690 16-511): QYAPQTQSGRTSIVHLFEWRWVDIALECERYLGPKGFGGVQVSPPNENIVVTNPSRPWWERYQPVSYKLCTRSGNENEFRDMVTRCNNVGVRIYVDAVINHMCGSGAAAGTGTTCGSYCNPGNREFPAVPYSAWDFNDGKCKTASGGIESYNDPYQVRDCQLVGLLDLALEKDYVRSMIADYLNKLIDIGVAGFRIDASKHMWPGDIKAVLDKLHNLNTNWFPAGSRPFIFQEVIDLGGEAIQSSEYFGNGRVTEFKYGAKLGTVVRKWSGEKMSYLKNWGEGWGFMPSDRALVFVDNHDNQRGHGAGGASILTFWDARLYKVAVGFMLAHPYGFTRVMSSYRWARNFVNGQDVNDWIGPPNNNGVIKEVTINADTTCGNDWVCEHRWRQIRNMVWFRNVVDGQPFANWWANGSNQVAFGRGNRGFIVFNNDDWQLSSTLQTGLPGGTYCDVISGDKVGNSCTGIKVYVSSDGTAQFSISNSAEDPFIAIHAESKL

[2] = target: T2, pancreatic lipase (Homo sapiens, UniProt P16233); experiment: lipase inhibition assay; type: biochemical; conditions: for inhibition of pancreatic lipase activity: 0.5–2 mg/mL
T2 sequence (P16233 17-465): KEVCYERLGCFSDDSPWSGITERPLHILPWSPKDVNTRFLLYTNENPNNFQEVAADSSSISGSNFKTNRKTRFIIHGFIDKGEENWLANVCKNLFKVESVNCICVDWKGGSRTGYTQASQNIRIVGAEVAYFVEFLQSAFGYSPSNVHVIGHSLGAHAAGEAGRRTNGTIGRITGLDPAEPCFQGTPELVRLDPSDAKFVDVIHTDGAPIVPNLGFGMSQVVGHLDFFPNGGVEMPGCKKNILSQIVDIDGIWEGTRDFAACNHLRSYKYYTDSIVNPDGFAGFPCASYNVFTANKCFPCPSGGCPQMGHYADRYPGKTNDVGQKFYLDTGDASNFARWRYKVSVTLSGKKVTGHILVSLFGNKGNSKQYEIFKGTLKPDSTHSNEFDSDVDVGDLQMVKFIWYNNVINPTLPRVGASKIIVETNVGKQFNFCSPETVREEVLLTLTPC

[3] = target: T3, rabbit lung ACE (Oryctolagus cuniculus, UniProt P12822); experiment: ACE inhibition assay (hippuric acid by HPLC); type: biochemical
T3 construct: purchased Sigma-Aldrich (St. Louis, MO, USA); host or cells: rabbit lung
T3 sequence (P12822 34-1310): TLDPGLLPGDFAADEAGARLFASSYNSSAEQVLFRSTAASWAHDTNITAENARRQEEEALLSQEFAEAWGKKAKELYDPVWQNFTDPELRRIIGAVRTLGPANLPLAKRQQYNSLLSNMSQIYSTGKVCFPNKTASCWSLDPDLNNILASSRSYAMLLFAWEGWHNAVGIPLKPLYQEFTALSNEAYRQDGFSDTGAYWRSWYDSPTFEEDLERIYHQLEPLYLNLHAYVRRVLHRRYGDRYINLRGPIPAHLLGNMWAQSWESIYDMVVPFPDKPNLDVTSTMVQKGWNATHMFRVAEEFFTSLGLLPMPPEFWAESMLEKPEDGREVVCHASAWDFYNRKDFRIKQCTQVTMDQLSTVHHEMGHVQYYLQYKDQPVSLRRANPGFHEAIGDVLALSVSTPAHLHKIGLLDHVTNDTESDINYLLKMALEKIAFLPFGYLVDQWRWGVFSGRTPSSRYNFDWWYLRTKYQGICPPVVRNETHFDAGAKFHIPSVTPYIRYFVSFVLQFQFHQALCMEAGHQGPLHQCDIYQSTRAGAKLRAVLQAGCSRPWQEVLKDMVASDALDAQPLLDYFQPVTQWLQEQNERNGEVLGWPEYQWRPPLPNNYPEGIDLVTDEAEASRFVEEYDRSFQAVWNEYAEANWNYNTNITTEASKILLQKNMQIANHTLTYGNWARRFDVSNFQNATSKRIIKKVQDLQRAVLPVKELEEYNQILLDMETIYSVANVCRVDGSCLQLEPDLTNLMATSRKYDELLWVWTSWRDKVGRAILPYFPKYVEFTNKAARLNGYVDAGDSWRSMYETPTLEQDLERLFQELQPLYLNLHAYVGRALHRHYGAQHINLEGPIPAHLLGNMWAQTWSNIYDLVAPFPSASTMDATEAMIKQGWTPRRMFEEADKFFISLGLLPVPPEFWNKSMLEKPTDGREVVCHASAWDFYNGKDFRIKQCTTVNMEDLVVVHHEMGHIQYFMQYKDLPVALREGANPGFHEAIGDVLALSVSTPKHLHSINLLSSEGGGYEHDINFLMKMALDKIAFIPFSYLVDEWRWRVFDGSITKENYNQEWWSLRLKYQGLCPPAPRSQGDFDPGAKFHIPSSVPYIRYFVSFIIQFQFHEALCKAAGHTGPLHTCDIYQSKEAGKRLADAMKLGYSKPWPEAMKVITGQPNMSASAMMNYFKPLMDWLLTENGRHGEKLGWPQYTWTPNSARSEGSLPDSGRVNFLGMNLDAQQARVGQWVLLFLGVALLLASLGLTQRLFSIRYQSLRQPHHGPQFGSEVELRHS

[4] = target: α-glucosidase; experiment: α-glucosidase inhibition assay; type: biochemical
[5] = scavenging ability on DPPH radicals; conditions: 0–250 μg/mL
Method: The scavenging ability of each extract on DPPH radicals was determined based on the method by Shimada et al.. Each extract was prepared in methanol at 0–1000 μg extract/mL, and 4 mL was mixed with 1 mL of methanolic solution containing DPPH radicals to a final concentration of 0.2 mM DPPH. After the mixture was shaken vigorously, it was left to stand in the dark for 30 min, and then the absorbance of the mixture was measured at 517 nm against a blank. […] Ascorbic acid, BHA, α-tocopherol, acetoxyvalerenic acid, and valerenic acid were compared. Each analysis was carried out in quadruplicate.

[6] = read-out: IC50, ACE (converted)

Structure (SMILES) | inhibition ability on α-amylase [1] | IC50 [2] | IC50, α-Glucosidase [4] | IC50 [3, 6] | further results
O=C(O)c1cc(O)c(O)c(O)c1 [Gallic acid, gallic acid] | 0–95.22% | 3.66 mM | 2.164 ± 0.026C mg/mL |  | IC50 [1]: 7.39 mM; IC50 [3]: 12.3 mM
CC1=C2[C@H](/C=C(\C)C(=O)O)CC[C@@H](C)[C@H]2CC1 [Valerenic acid] |  |  | 0.617 ± 0.028F mg/mL |  | ability to scavenge DPPH radicals [5]: not able to scavenge the DPPH radicals; inhibition of α-amylase activity [1]: could not effectively inhibit; inhibition of pancreatic lipase activity [2]: Neither; IC50, ACE [3]: 0.225 ± 0.023D mg/mL
O=C(O)c1ccc(O)c(O)c1 [Protocatechuic acid, protocatechuic acid] | 0–88.03% | 4.37 mM | 3.721 ± 0.042B mg/mL | 16 mM | 
C[C@H]1O[C@H](O[C@H]2[C@H](O)[C@@H](O)[C@@H](O[C@H]3[C@H](O)[C@@H](O)C(O)O[C@@H]3CO)O[C@@H]2CO)[C@H](O)[C@@H](O)[C@@H]1N[C@H]1C=C(CO)[C@@H](O)[C@H](O)[C@H]1O (stereo partly drawn) [Acarbose, acarbose, reference compound] |  |  |  |  | inhibitory ability of α-amylase ([1]; 5–25 μg/mL): 47–88%
O=C(/C=C/c1ccc(O)c(O)c1)O[C@@H]1C[C@](O)(C(=O)O)C[C@@H](O)[C@H]1O [Chlorogenic acid] | 0–89.52% | 3.13 mM |  | 13.6 mM | IC50 ([1]; read-out: IC50, α-Amylase (converted)): 5.06 mM
O=C(O)/C=C/c1ccc(O)c(O)c1 [Caffeic acid, caffeic acid] |  | 4.03 mM | 1.289 ± 0.024E mg/mL | 0.522 mM | 
CC(=O)O[C@@H]1CC(C)=C2[C@H]1[C@H](C)CC[C@H]2/C=C(\C)C(=O)O [Acetoxyvalerenic acid, acetoxyvalerenic acid] |  |  | 1.827 ± 0.005D mg/mL |  | ability to scavenge DPPH radicals [5]: not able to scavenge the DPPH radicals; inhibition of α-amylase activity [1]: could not effectively inhibit; inhibition of pancreatic lipase activity [2]: Neither; inhibitory ability on ACE ([3]; 2 mg/mL): 15%
